Experimental data from US8912189B2, “Pyridopyrazine derivatives and their use” (Aeterna Zentaris GmbH, priority 2011, dated 2014).

Columns and labels:
Erk2 = biological target: T1, Erk2; assay: Cell-free kinase assay (ALPHA technology), Erk2; assay type: biochemical; conditions: at 10 μM ATP; recombinant human kinase
T1 construct: partly as full-length kinases, partly as shortened fragments, but at least consisting of the functional kinase domains; purchased Upstate 14-173

PI3Kalpha = biological target: T2, PI3Kalpha (Homo sapiens, UniProt P42336); assay: Cell-free kinase assay (ALPHA technology), PI3Kalpha; assay type: biochemical; conditions: at 100 μM ATP; recombinant human kinase
T2 construct: partly as full-length kinases, partly as shortened fragments, but at least consisting of the functional kinase domains; purchased Upstate 14-602
Protocol: The inhibitory effect of the compounds according to the invention was tested on various serine/threonine, tyrosine and lipid kinases in enzymatic assays. Recombinant human kinases such as, for example, Erk2, PI3Kalpha and others were used in this case, partly as full-length kinases, partly as shortened fragments, but at least consisting of the functional kinase domains. The commercial kinase proteins (Proqinase, Upstate) were used as recombinant fusion proteins with GST (glutathion-S-transferase) or His-Tag. Depending on the type of substrate, the various kinase reactions were quantified by means of suitable ALPHA™ beads (Perkin-Elmer).
The substance testing is described in detail hereinafter for the Erk assay. To determine the IC50 value, the potential inhibitor substances were investigated in 10 semi-logarithmically graded concentrations of 3.16 nM-100 μM.
b) PI3K-ALPHAs (e.g. PI3Kalpha): the test substance, 1 ng PI3Kalpha (#14-602, Upstate), 100 μM ATP and 20 μM PIP2 substrate (#64910, Cayman Chemicals) were incubated on a 384-well Optiplate (Perkin-Elmer) for 1 h in 50 mM Hepes, 50 mM NaCl, 5 mM MgCl2, 0.05% Chaps, 5 mM DTT at pH 7.4. The kinase reaction was then stopped by adding ALPHA bead mixes (10 μg/ml, #6760603/Perkin-Elmer) pre-incubated with 1 nM GST:Grp1 fusion protein (Upstate) and 15 nM biotinylated PIP3 (#10009531, Cayman Chemicals) in 50 mM Hepes, 50 mM NaCl, 50 mM EDTA and 0.1% BSA and left to stand overnight.
The fluorescence was detected the following morning in a Envision plate reader (Perkin-Elmer).
The %-inhibition values per substance concentration were calculated by means of the following formula from the raw data determined in the Envision plate reader:
Eight determinations were made for each control and two for the substance samples. The 0% control either contains no ATP or no substrate, the 100% control (fully active kinase) contains no test substance. The IC50 values were determined using GraphPadPrism.

Hct116 = assay: XTT assay, anti-proliferative effect; assay type: cell-based; conditions: Homo sapiens, HCT-116; Hct116 cells, ~48 h incubation
Protocol: The principle of this test is based on the intracellular reduction of the tetrazolium dye XTT (sodium 3′-[1-(phenylaminocarbonyl)-3,4-tetrazolium]-bis(4-methoxy-6-nitro)benzene sulfonic acid, Sigma) to a formazan dye by mitochondrial dehydrogenases. The dye is only formed by metabolically active cells and its photometrically measurable intensity is a quantitative indicator for the presence of living cells. The reduction of dye formation by incubation of the cells with substances serves as a parameter for the anti-proliferative effect.
The tumour cell lines (ATCC) were injected into 96-well microtitre plates in a defined cell number (1250 cells/well for Hct116) and then incubated overnight in an incubator at 37° C., 5% CO2 and 95% air humidity. The test substances were prepared as stock solutions (10 mM) in DMSO. To determine the EC50 values the potential inhibitor substances were added to the cells in half-logarithmically graded dilutions, resulting in final concentrations of 1.58 nM-50 μM. The cell plates were then incubated for ˜48 h in an incubator at 37° C., 5% CO2 and 95% air humidity.
For the detection reaction the substrate XTT was mixed with PMS (N-Methyl dibenzopyrazine methylsulfate, Sigma) and added to the cells so that a final concentration of 325 μg XTT/ml and 2.5 μg PMS/ml was obtained. It was then incubated for 3 h at 37° C., 95% air humidity. The formazan salt formed by the cellular dehydrogenases could then be quantified by adsorption at 490 nm.
The % inhibition value was evaluated by means of the following formula from the values for the optical densities measured in each case at 490 nm:
Eight determinations were made for each control and two for the substance samples. The 0% control contains no cells, the 100% control (proliferation control) contains no test substance. The EC50 values were determined using GraphPadPrism.

T1 sequence (P63085 2-358 limits assumed): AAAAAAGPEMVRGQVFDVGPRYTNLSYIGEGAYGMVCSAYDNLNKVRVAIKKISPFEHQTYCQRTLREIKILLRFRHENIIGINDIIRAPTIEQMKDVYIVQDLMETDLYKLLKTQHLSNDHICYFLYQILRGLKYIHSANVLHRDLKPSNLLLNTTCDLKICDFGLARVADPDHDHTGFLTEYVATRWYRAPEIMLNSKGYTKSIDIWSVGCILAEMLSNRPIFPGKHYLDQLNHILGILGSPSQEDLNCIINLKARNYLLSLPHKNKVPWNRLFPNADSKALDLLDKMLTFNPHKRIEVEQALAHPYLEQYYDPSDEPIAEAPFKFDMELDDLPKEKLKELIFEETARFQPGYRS
T2 sequence (P42336 whole entry, the tested form may be a part): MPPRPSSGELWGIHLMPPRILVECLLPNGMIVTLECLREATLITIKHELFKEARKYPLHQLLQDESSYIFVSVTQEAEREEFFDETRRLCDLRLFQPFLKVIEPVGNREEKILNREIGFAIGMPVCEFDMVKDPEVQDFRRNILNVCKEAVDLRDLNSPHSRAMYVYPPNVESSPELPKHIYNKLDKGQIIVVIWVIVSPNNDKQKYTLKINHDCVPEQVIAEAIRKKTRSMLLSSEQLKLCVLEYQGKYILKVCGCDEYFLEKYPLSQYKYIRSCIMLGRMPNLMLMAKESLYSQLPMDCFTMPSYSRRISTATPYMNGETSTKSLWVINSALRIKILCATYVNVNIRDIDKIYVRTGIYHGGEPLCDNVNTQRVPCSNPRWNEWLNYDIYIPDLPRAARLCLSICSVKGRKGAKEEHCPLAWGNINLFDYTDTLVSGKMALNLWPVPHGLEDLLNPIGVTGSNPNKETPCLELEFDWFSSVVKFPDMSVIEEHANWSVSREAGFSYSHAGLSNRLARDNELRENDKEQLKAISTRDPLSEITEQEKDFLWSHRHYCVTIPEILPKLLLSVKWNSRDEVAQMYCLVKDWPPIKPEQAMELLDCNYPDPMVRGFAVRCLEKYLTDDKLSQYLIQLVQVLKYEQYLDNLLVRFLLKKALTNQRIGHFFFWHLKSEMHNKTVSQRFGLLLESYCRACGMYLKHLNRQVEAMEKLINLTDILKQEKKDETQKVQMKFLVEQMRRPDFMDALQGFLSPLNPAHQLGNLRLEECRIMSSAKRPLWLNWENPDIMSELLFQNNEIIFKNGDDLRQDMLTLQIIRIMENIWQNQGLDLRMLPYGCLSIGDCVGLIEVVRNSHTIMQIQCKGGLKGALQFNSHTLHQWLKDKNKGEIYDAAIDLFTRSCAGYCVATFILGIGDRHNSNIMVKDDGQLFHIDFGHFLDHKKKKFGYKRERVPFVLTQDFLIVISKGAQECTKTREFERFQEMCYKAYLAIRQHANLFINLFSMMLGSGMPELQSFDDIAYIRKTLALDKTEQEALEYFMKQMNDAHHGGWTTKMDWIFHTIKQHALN
T2 sequence (P27986 whole entry partner, the tested form may be a part): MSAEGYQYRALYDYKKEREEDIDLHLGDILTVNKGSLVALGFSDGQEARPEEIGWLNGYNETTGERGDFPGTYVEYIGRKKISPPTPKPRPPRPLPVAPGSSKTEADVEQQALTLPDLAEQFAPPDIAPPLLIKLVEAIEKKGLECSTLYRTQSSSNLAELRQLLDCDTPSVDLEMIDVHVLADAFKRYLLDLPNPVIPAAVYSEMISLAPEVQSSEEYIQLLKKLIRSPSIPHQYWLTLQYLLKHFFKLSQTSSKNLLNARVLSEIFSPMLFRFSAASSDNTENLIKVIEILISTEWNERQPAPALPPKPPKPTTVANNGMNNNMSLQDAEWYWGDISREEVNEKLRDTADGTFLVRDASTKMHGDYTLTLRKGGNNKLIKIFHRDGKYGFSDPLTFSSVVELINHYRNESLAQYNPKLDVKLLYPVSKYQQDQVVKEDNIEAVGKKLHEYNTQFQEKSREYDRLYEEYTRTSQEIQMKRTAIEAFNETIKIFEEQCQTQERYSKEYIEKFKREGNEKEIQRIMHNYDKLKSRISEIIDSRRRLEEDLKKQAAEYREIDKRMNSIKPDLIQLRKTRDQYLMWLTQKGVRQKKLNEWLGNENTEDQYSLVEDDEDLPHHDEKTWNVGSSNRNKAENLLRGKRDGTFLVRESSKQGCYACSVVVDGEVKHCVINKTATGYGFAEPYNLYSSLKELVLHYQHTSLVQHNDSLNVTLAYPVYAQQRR

IC50 (Erk2) [nM]	IC50 (PI3Kalpha) [nM]	EC50 (Hct116) [nM]	melting point [°C]	SMILES
336	168	2570	217 to 220	CCNC(=S)Nc1ccc2ncc(-c3cnn(Cc4cccc(OC)c4)c3)nc2n1 [Compound 40, 1-Ethyl-3-{3-[1-(3-methoxy-benzyl)-1H-pyrazol-4-yl]-pyrido[2,3-b]pyrazin-6-yl}-thiourea]
400	184	3010	258 to 261	CCNC(=S)Nc1ccc2ncc(-c3cnn(Cc4cccc(C)c4)c3)nc2n1 [Compound 41, 1-Ethyl-3-{3-[1-(3-methyl-benzyl)-1H-pyrazol-4-yl]-pyrido[2,3-b]pyrazin-6-yl}-thiourea]
43	274	1980	205	CCNC(=O)Nc1ccc2ncc(-c3cnn(Cc4ccc(OC)c(OC)c4)c3)nc2n1 [Compound 42, 1-{3-[1-(3,4-Dimethoxy-benzyl)-1H-pyrazol-4-yl]-pyrido[2,3-b]pyrazin-6-yl}-3-ethyl-urea]
523	391	–	242	CCNC(=S)Nc1ccc2ncc(-c3cnn(Cc4ccc(O)c(OC)c4)c3)nc2n1 [Compound 55, 1-Ethyl-3-{3-[1-(4-hydroxy-3-methoxy-benzyl)-1H-pyrazol-4-yl]-pyrido[2,3-b]pyrazin-6-yl}-thiourea]
–	–	–	250 to 252	CCNC(=O)Nc1ccc2ncc(-c3cnn(Cc4ccc(Br)c(C)c4)c3)nc2n1 [Compound 22, 1-{3-[1-(4-Bromo-3-methyl-benzyl)-1H-pyrazol-4-yl]-pyrido[2,3-b]pyrazin-6-yl}-3-ethyl-urea]
–	–	–	230	CCNC(=S)Nc1ccc2ncc(-c3cnn(Cc4ccc(OC)c(O)c4)c3)nc2n1 [Compound 57, 1-Ethyl-3-{3-[1-(3-hydroxy-4-methoxy-benzyl)-1H-pyrazol-4-yl]-pyrido[2,3-b]pyrazin-6-yl}-thiourea]
112	82	1650	213	CCNC(=S)Nc1ccc2ncc(-c3cnn(Cc4ccc(OC)c(OC)c4)c3)nc2n1 [Compound 28, 1-{3-[1-(3,4-Dimethoxy-benzyl)-1H-pyrazol-4-yl]-pyrido[2,3-b]pyrazin-6-yl}-3-ethyl-thiourea]
225	180	2110	–	CCNC(=S)Nc1ccc2ncc(-c3cnn(Cc4cccc(S(C)(=O)=O)c4)c3)nc2n1 [Compound 65, 1-Ethyl-3-{3-[1-(3-methanesulfonyl-benzyl)-1H-pyrazol-4-yl]-pyrido[2,3-b]pyrazin-6-yl}-thiourea]
–	–	–	257 to 259	CCNC(=S)Nc1ccc2ncc(-c3cnn(Cc4cc(C)cc(F)c4)c3)nc2n1 [Compound 25, 1-Ethyl-3-{3-[1-(3-fluoro-5-methyl-benzyl)-1H-pyrazol-4-yl]-pyrido[2,3-b]pyrazin-6-yl}-thiourea]

Continued, compound first:

SMILES	IC50 (Erk2) [nM]	IC50 (PI3Kalpha) [nM]	EC50 (Hct116) [nM]	melting point [°C]
CCNC(=S)Nc1ccc2ncc(-c3cnn(Cc4cccc(OC(F)F)c4)c3)nc2n1 [Compound 27, 1-{3-[1-(3-Difluoromethoxy-benzyl)-1H-pyrazol-4-yl]-pyrido[2,3-b]pyrazin-6-yl}-3-ethyl-thiourea]	750	59	1530	–
CCNC(=S)Nc1ccc2ncc(-c3cnn(Cc4cccc(OC)c4F)c3)nc2n1 [Compound 29, 1-Ethyl-3-{3-[1-(2-fluoro-3-methoxy-benzyl)-1H-pyrazol-4-yl]-pyrido[2,3-b]pyrazin-6-yl}-thiourea]	492	112	2560	215 to 220
CCNC(=S)Nc1ccc2ncc(-c3cnn(Cc4ccc(O)cc4)c3)nc2n1 [Compound 210, 1-Ethyl-3-{3-[1-(4-hydroxy-benzyl)-1H-pyrazol-4-yl]-pyrido[2,3-b]pyrazin-6-yl}-thiourea]	225	208	1700	257
CCNC(=S)Nc1ccc2ncc(-c3cnn(Cc4ccccc4)c3)nc2n1 [Compound 45, 1-[3-(1-Benzyl-1H-pyrazol-4-yl)-pyrido[2,3-b]pyrazin-6-yl]-3-ethyl-thiourea]	272	249	1950	252
CCNC(=S)Nc1ccc2ncc(-c3cnn(Cc4cccnc4)c3)nc2n1 [Compound 24, 1-Ethyl-3-[3-(1-pyridin-3-ylmethyl-1H-pyrazol-4-yl)-pyrido[2,3-b]pyrazin-6-yl]-thiourea]	–	–	–	238
CCNC(=O)Nc1ccc2ncc(-c3cnn(CCCc4ccccc4)c3)nc2n1 [Compound 9, 1-Ethyl-3-{3-[1-(3-phenyl-propyl)-1H-pyrazol-4-yl]-pyrido[2,3-b]pyrazin-6-yl}-urea]	–	–	–	251
CCNC(=S)Nc1ccc2ncc(-c3cnn(Cc4cc(OC)ccc4OC)c3)nc2n1 [Compound 19, 1-{3-[1-(2,5-Dimethoxy-benzyl)-1H-pyrazol-4-yl]-pyrido[2,3-b]pyrazin-6-yl}-3-ethyl-thiourea]	–	–	–	225
CCNC(=S)Nc1ccc2ncc(-c3cnn(Cc4cc(OC)c(OC)c(OC)c4)c3)nc2n1 [Compound 46, 1-Ethyl-3-{3-[1-(3,4,5-trimethoxy-benzyl)-1H-pyrazol-4-yl]-pyrido[2,3-b]pyrazin-6-yl}-thiourea]	–	–	–	232
COc1cccc(Cn2cc(-c3cnc4ccc(NC(=S)NCC(F)(F)F)nc4n3)cn2)c1 [Compound 47, 1-{3-[1-(3-Methoxy-benzyl)-1H-pyrazol-4-yl]-pyrido[2,3-b]pyrazin-6-yl}-3-(2,2,2-trifluoro-ethyl)-thiourea]	–	–	–	217
COCCNC(=S)Nc1ccc2ncc(-c3cnn(Cc4ccc(OC)c(OC)c4)c3)nc2n1 [Compound 7, 1-{3-[1-(3,4-Dimethoxy-benzyl)-1H-pyrazol-4-yl]-pyrido[2,3-b]pyrazin-6-yl}-3-(2-methoxy-ethyl)-thiourea]	–	–	–	198
CCNC(=O)Nc1ccc2ncc(-c3cnn(CCNC(=O)OC(C)(C)C)c3)nc2n1 [Compound 406, (2-{4-[6-(3-Ethyl-ureido)-pyrido[2,3-b]pyrazin-3-yl]-pyrazol-1-yl}ethyl)-carbamic acid tert-butyl ester]	–	–	–	235
CCNC(=O)Nc1ccc2ncc(-c3cnn(Cc4cc(OC)c(OC)c(OC)c4)c3)nc2n1 [Compound 1, 1-Ethyl-3-{3-[1-(3,4,5-trimethoxy-benzyl)-1H-pyrazol-4-yl]-pyrido[2,3-b]pyrazin-6-yl}-urea]	–	–	–	219
CCNC(=S)Nc1ccc2ncc(-c3cnn(Cc4cccc(OCc5ccccc5)c4)c3)nc2n1 [Compound 21, 1-{3-[1-(3-Benzyloxy-benzyl)-1H-pyrazol-4-yl]-pyrido[2,3-b]pyrazin-6-yl}-3-ethyl-thiourea]	–	–	–	203 to 205
